Measured values: patent US12240846B2 (Enliven Inc., priority 2020, dated 2025)

Tests used:
[1] = molecular target: ABL1 (T315I) (Homo sapiens, UniProt P00519, T315I); experiment: Luminescence-based ABL kinase assay (300 μM ATP), ADP-Glo; format: biochemical
Description: Kinase activity of ABL1 was measured using the ADP-Glo system (Promega), which measures formation of ADP using a luminescence-based method. Compounds were serially diluted in DMSO. 20 nL of compound or DMSO only (high control, HC) were added to a 384-well plate (OptiPlate-384. PerkinElmer) using an Echo550 liquid handler (Labcyte). 15 μL of kinase solution (10 mM MgCl2, 0.01% Brij-35, 2 mM DTT, 0.05% BSA, 1 mM EGTA, 50 mM HEPES pH 7.5, and 3.325 nM ABL1 [Carna Biosciences]) were added to each well of the 384-well plate containing the compounds. No enzyme control wells were included (low control, LC). The plate was incubated at room temperature for 30 minutes. 5 μL of a second solution containing 10 mM MgCl2, 0.01% Brij-35, 2 mM DTT, 0.05% BSA, 1 mM EGTA, 50 mM HEPES pH 7.5, 6 μM Peptide 2 (Perkin Elmer, Cat No 760346), and 1.2 mM ATP were added to each well to start the kinase reaction. The plate was incubated for 90 minutes at room temperature. 20 μL of ADP-Glo reagent (Promega) were then added to each well and the plate was incubated for 40 minutes at room temperature. 40 μL of kinase detection reagent (Promega) was added to each well and the plate was incubated for an additional 45 minutes at room temperature. During this step, ADP was converted to ATP, a substrate for luciferase, to produce luminescence signal. Luminescence was measured on an Envision plate reader (Perkin Elmer). Luminescence signal positively correlates with kinase activity. The percent kinase activity was calculated as follows: percent kinase activity=100×(Lumsample−LumLC)/(LumHC−LumLC). As noted above, DMSO only and no enzyme wells were used as high and low controls, respectively. IC50 values were calculated using the XLFit software.

[2] = test system: HL60 cells; experiment: HL60 cell proliferation assay (CellTiter-Glo); format: cell-based; details: Homo sapiens, HL-60, HL60 cell viability, 72 hours, read-out: Cell Line (IC50, nM) HL60
Description: (§1) K562 and HL60 Cell Proliferation Assay
(§2) K562 and HL60 cells, cultured in Iscove's Modified Dulbecco's Media (IMDM) supplemented with 10% FBS, were harvested at 50-80% confluency and plated at 2,000 cells per well (K562) or 1,500 cells per well (HL60) in 384-well tissue culture plates. A subset of wells contained media only (low control, LC). […] The plates were placed in a 37° C. incubator with 5% CO2 for 72 hours. Cell viability was measured using a CellTiter-Glo luminescent cell viability assay (Promega), which allows for relative quantification of metabolically active cells by luminescence-based measurements of intracellular ATP concentrations. Briefly, plates were removed from the incubator and equilibrated for 15 minutes at room temperature prior to the addition of 40 μL of CellTiter-Glo reagent. Plates were then incubated for 30 minutes at room temperature. Luminescence was measured using an EnSpire plate reader (Perkin Elmer). As noted above, luminescence values from wells with DMSO only or media without cells were used as high and low controls (HC and LC), respectively. Normalized percent viability was calculated as follows: percent viability=100×(Lumsample−LumLC)/(LumHC−LumLC).

[3] = test system: K562 cells; experiment: K562 cell proliferation assay (CellTiter-Glo); format: cell-based; details: Homo sapiens, K562 cell viability, 72 hours, read-out: Cell Line (IC50, nM) K562
Description: as §1, §2

[4] = molecular target: T1, ABL1 (Homo sapiens, UniProt P00519); experiment: Luminescence-based ABL kinase assay (300 μM ATP), ADP-Glo; format: biochemical
T1 construct: purchased Carna Biosciences
Description: Compounds were serially diluted in DMSO. […] Luminescence signal positively correlates with kinase activity.

Structure (SMILES) | IC50 [1] | IC50 [2] | IC50 [3] | IC50 [4]
CCN1CCN(CCNC(=O)Nc2cc3cc(-c4c(OC)cccc4OC)n(C)c3cn2)CC1 [Compound 87, 1-(2-(2,6-dimethoxyphenyl)-1-methyl-1H-pyrrolo[2,3-c]pyridin-5-yl)-3-(2-(4-ethylpiperazin-1-yl)ethyl)urea] | 76.6 nM | > 10000 nM | 78.5 nM | 35 nM
[2H]C([2H])([2H])Oc1ncc(F)cc1-c1cc2cc(NC(=O)[C@@H]3C[C@@H]3F)ncc2n1C([2H])([2H])[2H] [Compound 88, (1S,2S)-2-fluoro-N-(2-(5-fluoro-2-(methoxy-d3)pyridin-3-yl)-1-(methyl-d3)-1H-pyrrolo[2,3-c]pyridin-5-yl)cyclopropane-1-carboxamide] | 459 nM | 5150 nM | 166 nM | 409 nM
CCOc1ncc(F)cc1-c1cc2cc(NC(=O)[C@@H]3C[C@@H]3F)ncc2n1C [Compound 143, (1S,2S)-N-[2-(2-ethoxy-5-fluoropyridin-3-yl)-1-methylpyrrolo[2,3-c]pyridin-5-yl]-2-fluorocyclopropane-1-carboxamide] | 299 nM | 9800 nM | 289 nM | 74.9 nM
COc1ncnc(OC)c1-c1cc2cc(NC(=O)[C@@H]3C[C@@H]3F)ncc2[nH]1 [Compound 99, (1S,2S)-N-(2-(4,6-dimethoxypyrimidin-5-yl)-1H-pyrrolo[2,3-c]pyridin-5-yl)-2-fluorocyclopropane-1-carboxamide] | > 10000 nM | > 10000 nM | 396 nM | 111 nM
COc1ccnc(OC)c1-c1cc2cc(NC(=O)[C@H]3C[C@@H]3CN(C)C)ncc2n1C (single isomer, unassigned) [Compound 123] | 80.6 nM | 1770 nM | 106 nM | 59.4 nM
COc1cccc(C)c1-c1cc2cc(NC(=O)[C@@H]3C[C@@H]3F)ncc2n1C [Compound 25, (1S,2S)-2-fluoro-N-[2-(2-methoxy-6-methylphenyl)-1-methylpyrrolo[2,3-c]pyridin-5-yl]cyclopropane-1-carboxamide] | 10.8 nM | 523 nM | 91.7 nM | 10.9 nM
COc1nccc(C)c1-c1cc2cc(NC(=O)[C@@H]3C[C@@H]3F)ncc2n1C [Compound 59, (1S,2S)-2-fluoro-N-[2-(2-methoxy-4-methylpyridin-3-yl)-1-methylpyrrolo[2,3-c]pyridin-5-yl]cyclopropane-1-carboxamide] | 40.7 nM | 1460 nM | 120 nM | 40.2 nM
COc1ccccc1-c1c(C#N)c2cc(NC(=O)C3CC3)ncc2n1C [Compound 47, N-[3-cyano-2-(2-methoxyphenyl)-1-methylpyrrolo[2,3-c]pyridin-5-yl]cyclopropanecarboxamide] | 548 nM | > 10000 nM | 1360 nM | 244 nM
COc1ncnc(O)c1-c1cc2cc(NC(=O)[C@@H]3C[C@@H]3F)ncc2n1C [Compound 106, (1S,2S)-2-fluoro-N-[2-(4-hydroxy-6-methoxypyrimidin-5-yl)-1-methylpyrrolo[2,3-c]pyridin-5-yl]cyclopropane-1-carboxamide] | > 10000 nM | > 10000 nM | > 10000 nM | 1690 nM
COc1ncnc(OC)c1-c1cc2cc(NC(=O)[C@H]3C[C@H]3F)ncc2n1C [Compound 94, (1R,2R)-N-[2-(4,6-dimethoxypyrimidin-5-yl)-1-methylpyrrolo[2,3-c]pyridin-5-yl]-2-fluorocyclopropane-1-carboxamide] | 127 nM | 9640 nM | 79.4 nM | 57.4 nM
COc1ccccc1-c1[nH]c2cc(NC(=O)[C@@H]3C[C@@H]3F)ncc2c1C [Compound 48, (1S,2S)-2-fluoro-N-[2-(2-methoxyphenyl)-3-methyl-1H-pyrrolo[3,2-c]pyridin-6-yl]cyclopropane-1-carboxamide] | 4.48 nM | 808 nM | 85.8 nM | 31.7 nM
COc1ncc(F)c(OC)c1-c1cc2cc(NC(=O)[C@@H]3C[C@H]3CN3CCN(C)CC3)ncc2n1C (single isomer, unassigned) [Compound 129] | 34.6 nM | > 10000 nM | 85.5 nM | 33.4 nM
Cn1c(-c2cnccc2OC2CC2)cc2cc(NC(=O)[C@@H]3C[C@@H]3F)ncc21 [Compound 116, (1S,2S)-N-[2-(4-cyclopropoxypyridin-3-yl)-1-methylpyrrolo[2,3-c]pyridin-5-yl]-2-fluorocyclopropane-1-carboxamide] | 1190 nM | 9310 nM | 256 nM | 66.9 nM
COc1ccccc1-c1cc2cc(NC(=O)NCCN3CCOCC3)ncc2n1C [Compound 80, 1-(2-(2-methoxyphenyl)-1-methyl-1H-pyrrolo[2,3-c]pyridin-5-yl)-3-(2-morpholinoethyl)urea] | 193 nM | > 10000 nM | 1610 nM | 155 nM
COc1ccnc(OC)c1-c1cc2cc(NC(=O)[C@@H]3C[C@H]3CN(C)C)ncc2n1C (single isomer, unassigned) [Compound 122] | 52.8 nM | > 10000 nM | 117 nM | 53.4 nM
COc1ccnc(OC)c1-c1cc2cc(NC(=O)[C@@H]3C[C@H]3CN3CCN(C)CC3)ncc2n1C (single isomer, unassigned) [Compound 121] | 87.9 nM | > 10000 nM | 99.1 nM | 88.8 nM
COc1cnnc(OC)c1-c1cc2cc(NC(=O)[C@@H]3C[C@@H]3F)ncc2n1C [Compound 107, (1S,2S)-N-[2-(3,5-dimethoxypyridazin-4-yl)-1-methylpyrrolo[2,3-c]pyridin-5-yl]-2-fluorocyclopropane-1-carboxamide] | 94.6 nM | 2550 nM | 40.5 nM | 17.4 nM
Cc1c(O)cccc1-c1cc2cc(NC(=O)C3CC3)ncc2n1C [Compound 7, N-[2-(3-hydroxy-2-methylphenyl)-1-methylpyrrolo[2,3-c]pyridin-5-yl]cyclopropanecarboxamide] | 6.59 nM | 60.9 nM | 37.8 nM | 9.22 nM
COc1nccc(F)c1-c1cc2cc(NC(=O)[C@@H]3C[C@@H]3F)ncc2n1C [Compound 89, (1S,2S)-2-fluoro-N-[2-(4-fluoro-2-methoxypyridin-3-yl)-1-methylpyrrolo[2,3-c]pyridin-5-yl]cyclopropane-1-carboxamide] | 15 nM | 2110 nM | 153 nM | 76.6 nM
COc1cccc(OC)c1-c1cc2cc(NC(=O)[C@@H]3C[C@@H]3F)ncc2n1C [Compound 119, (1S,2S)-N-[2-(2,6-dimethoxyphenyl)-1-methylpyrrolo[2,3-c]pyridin-5-yl]-2-fluorocyclopropane-1-carboxamide] | 1.76 nM | 159 nM | 9.35 nM | 2.38 nM
Cn1c(-c2ccncc2OC2CC2)cc2cc(NC(=O)[C@@H]3C[C@@H]3F)ncc21 [Compound 117, (1S,2S)-N-[2-(3-cyclopropoxypyridin-4-yl)-1-methylpyrrolo[2,3-c]pyridin-5-yl]-2-fluorocyclopropane-1-carboxamide] | 662 nM | 4180 nM | 141 nM | 43.3 nM
